In article PMC8636635 (Communications Biology, 2021):

Columns and labels:
SARS-CoV-1 Protein E = SARS-CoV-1 Protein E (Severe acute respiratory syndrome-related coronavirus, UniProt P59637); type: cell-based
SARS-CoV-2 Protein E = SARS-CoV-2 Protein E (Severe acute respiratory syndrome coronavirus 2, UniProt P0DTC4); experiment: two-electrode voltage clamp, X. laevis oocytes; settings: read-out: % block at 10 μM
ORF7b = target: T1, ORF7b (Severe acute respiratory syndrome coronavirus 2, UniProt P0DTD8)
T1 construct: gene 7b
T1 sequence (P0DTD8 whole entry): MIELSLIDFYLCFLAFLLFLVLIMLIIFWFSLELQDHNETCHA

Sequence of SARS-CoV-1 Protein E (P59637 whole entry, looked up): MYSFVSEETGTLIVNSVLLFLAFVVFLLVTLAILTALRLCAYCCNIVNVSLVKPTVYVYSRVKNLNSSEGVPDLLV
Sequence of SARS-CoV-2 Protein E (P0DTC4 whole entry): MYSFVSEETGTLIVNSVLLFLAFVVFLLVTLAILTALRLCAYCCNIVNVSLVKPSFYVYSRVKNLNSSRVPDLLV

For `C1C2CC3CC1CC(C2)C3` [adamantane], the “% block” value (SARS-CoV-1 Protein E) was “adamantane that also blocked Protein E from SARS-CoV-1, but not that of SARS-CoV-2”.
`NC12CC3CC(CC(C3)C1)C2` [amantadine] gave an inhibition at 10 µM (SARS-CoV-2 Protein E) of 77%.
With `Cc1cc(O)c2c(c1)C(=O)c1cc(O)cc(O)c1C2=O` [emodin] the “% block” value (SARS-CoV-1 Protein E) was “HMA and emodin blocked the Protein E ion channels from both SARS-CoV-1 and -2”, the “% reduction in current at 10 μM” value (ORF7b) was 79% and the inhibition at 10 µM (SARS-CoV-2 Protein E) was 60%.
In the case of `N=C(N)NC(=O)c1nc(Cl)c(N2CCCCCC2)nc1N` [hexamethylene-amiloride], the “% block” value (SARS-CoV-1 Protein E) is reported as “HMA and emodin blocked the Protein E ion channels from both SARS-CoV-1 and -2” and the inhibition at 10 µM (SARS-CoV-2 Protein E) is reported as 50%.
For `c1ccc2c(c1)Cc1ccccc1O2` [xanthene], the “% reduction in current at 10 μM” value (ORF7b) was 47% and the inhibition at 10 µM (SARS-CoV-2 Protein E) was 80%.
